Measurements taken from PubChem BioAssay (NCI).
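Each compound was tested at five concentrations against cells in 96-well plates for 48 hours. The concentration for full growth arrest is given as TGI.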 *1 amine or outer side, *2 acyl side, *3 side chain or, on linkers, in order; H or OH if unused. Where a SMILES comes first, the peptide text is derived from it. [ ]: non-standard residue; d: D form. The star is where a group is joined. X31 = CC(=O)N(C)SCC(N[*:1])C(=O)[*:2]; Cbz = O=C(OCc1ccccc1)*; Bn = c1ccc(C*)cc1; For = O=C*

What was measured:
Assay in all cases: NCI tumour cell line growth inhibition, 48 h
NCI-H23 lung = system: NCI-H23 lung
NCI-H226 lung = system: NCI-H226 lung
RPMI-8226 leukemia = system: RPMI-8226 leukemia
LOX IMVI melanoma = system: LOX IMVI melanoma
UACC-257 melanoma = system: UACC-257 melanoma
TK-10 renal = system: TK-10 renal
U251 CNS = system: U251 CNS
K-562 leukemia = system: K-562 leukemia
OVCAR-4 ovarian = system: OVCAR-4 ovarian
HOP-62 NSCLC = system: HOP-62 NSCLC
SF-295 CNS = system: SF-295 CNS
SW-620 colon = system: SW-620 colon
CAKI-1 renal = system: CAKI-1 renal
A498 renal = system: A498 renal

Row | Compound | TGI (NCI-H23 lung) [µM] | TGI (NCI-H226 lung) [µM] | TGI (RPMI-8226 leukemia) [µM] | TGI (LOX IMVI melanoma) [µM] | TGI (UACC-257 melanoma) [µM] | TGI (TK-10 renal) [µM] | TGI (U251 CNS) [µM] | TGI (K-562 leukemia) [µM] | TGI (OVCAR-4 ovarian) [µM] | TGI (HOP-62 NSCLC) [µM] | TGI (SF-295 CNS) [µM] | TGI (SW-620 colon) [µM] | TGI (CAKI-1 renal) [µM] | TGI (A498 renal) [µM]
1 | O=C(CSc1nnc(-c2ccc(N=Cc3ccc(Cl)cc3)cc2)o1)Nc1ccccc1[N+](=O)[O-] | > 100 | > 100 | > 100 | > 100 | > 100 | > 100 | > 100 | > 100 | > 100 | > 100 | > 100 | > 100 |  | 
2 | CC(=O)OC1COC(n2c(O)c(N=NC(N)=S)c3cc(Br)ccc32)C(OC(C)=O)C1OC(C)=O (stereo not given) | > 100 | > 100 | > 100 | > 100 | > 100 | > 100 | > 100 | > 100 | > 100 | > 100 | > 100 | > 100 | > 100 | 
3 | C=CCNC(=O)NC(=O)CSC1=NNC2(C(=O)N1)c1ccccc1-c1ccccc12 | > 10 | > 10 | > 10 | > 10 | > 10 | > 10 |  | > 10 | > 10 | > 10 | > 10 | > 10 | > 10 | 
4 | COc1ccc2c3c1O[C@]1(C)C34CCN(C)C(C2)C42C=C[C@@]1(OC)c1c(O)ccc(O)c12 | > 100 |  | > 100 | > 100 | > 100 | > 100 | > 100 | > 100 |  | > 100 | > 100 | > 100 |  | > 100
5 | NC(=O)N/N=C(\CC1OC(=O)c2ccccc21)c1ccco1 (stereo not given) | > 100 | > 100 |  | > 100 | > 100 | > 100 |  | > 100 | > 100 |  | > 100 | > 100 | > 100 | > 100
6 | COC(=O)N/N=C(\Cc1ccccc1)CN(C)C | > 100 |  | > 100 | > 100 | > 100 | > 100 | > 100 | > 100 |  | > 100 | > 100 | > 100 |  | > 100
7 | C=CCNC1=C2C[C@@H](C)C[C@@H](OC)[C@H](OC(=O)CCN)[C@H](C)/C=C(\C)[C@@H](OC(N)=O)[C@H](OC)/C=C\C=C(/C)C(=O)NC(=CC1=O)C2=O | 13 |  | 32.5 | 10.8 | 10.3 | 10.5 | 18.8 | > 100 | 21.3 | 17.5 | 14.1 | > 100 | 25.6 | 17.6
8 | CS(=O)(=O)c1nc(-c2cc3c(c(S(C)(=O)=O)n2)CCC3)cc2c1CCCCC2 | > 100 | > 100 | > 100 | > 100 | > 100 | > 100 | > 100 | > 100 | > 100 | 84.8 | > 100 | > 100 | > 100 | 
9 | Clc1ccc(NCc2nnc(CCCCCCCCc3nnc(CNc4ccc(Cl)cc4)o3)o2)cc1 | > 100 |  | > 100 | > 100 | > 100 | > 100 | > 100 | > 100 | > 100 | > 100 | > 100 |  | > 100 | > 100
10 | O=c1[nH]c2cc([N+](=O)[O-])ccc2nc1/C(=N/Nc1ccccc1)C(O)c1ccccc1Cl (stereo not given) | > 100 | > 100 | > 100 | > 100 | > 100 | > 100 | > 100 | > 100 | > 100 | > 100 | > 100 | > 100 |  | 
11 | CCOC(=O)N1CCN(C=S)CC1 | > 100 |  |  | > 100 | > 100 | > 100 | > 100 | > 100 |  | > 100 |  | > 100 |  | > 100
12 | O=c1[nH]c2cc(Cl)ccc2nc1/C(=N\O)C(O)c1cccc([N+](=O)[O-])c1 (stereo not given) | > 100 | > 100 | > 100 | > 100 | > 100 | > 100 |  | > 100 | > 100 | > 100 | > 100 | > 100 |  | 
13 | O=C(Nc1ccc(Cl)cc1)NS(=O)(=O)c1coc2cc(F)ccc2c1=O | > 100 | > 100 |  | > 100 | > 100 | > 100 | > 100 | > 100 | > 100 | > 100 | > 100 | > 100 | > 100 | 
14 | CCCCNc1nc(C#N)c(N)s1 | > 100 | > 100 | > 100 | > 100 | > 100 | > 100 | > 100 | > 100 | > 100 | > 100 | > 100 | > 100 | > 100 | 
15 | O=C(c1cccs1)N(C(=S)N1CCN(c2ccccn2)CC1)c1ccccc1 | > 100 | 84.4 | > 100 | > 100 | > 100 | > 100 | > 100 | > 100 | > 100 | > 100 | > 100 | > 100 | > 100 | 
16 | C(=C\c1cccs1)/c1cccc(/C=C/c2cccs2)n1 | > 100 | > 100 | > 100 | > 100 | > 100 | > 100 | > 100 | > 100 | 66.6 | > 100 | > 100 | > 100 | > 100 | 
17 | CCOC(=O)c1cccn1S(=O)(=O)c1cc(Cl)ccc1NC(=O)CC |  |  | > 100 | > 100 | > 100 | > 100 | > 100 | > 100 | > 100 | > 100 | > 100 | > 100 | > 100 | > 100

Row | Compound | TGI (NCI-H23 lung) [µM] | TGI (NCI-H226 lung) [µM] | TGI (RPMI-8226 leukemia) [µM] | TGI (LOX IMVI melanoma) [µM] | TGI (UACC-257 melanoma) [µM] | TGI (TK-10 renal) [µM] | TGI (U251 CNS) [µM] | TGI (K-562 leukemia) [µM] | TGI (OVCAR-4 ovarian) [µM] | TGI (HOP-62 NSCLC) [µM] | TGI (SF-295 CNS) [µM] | TGI (SW-620 colon) [µM] | TGI (CAKI-1 renal) [µM] | TGI (A498 renal) [µM]
18 | CC1C2(C)OC(=N)C(C#N)(C(c3ccccc3)O2)C1(C#N)C#N (stereo not given) | 78.2 | > 100 |  | 36.9 | 68.7 | > 100 | 46.6 | > 100 |  |  | > 100 |  | 26.6 | > 100
19 | C=Cc1ccc(C)[n+](C[Si](C)(C)O[Si](C)(C)C)c1 | > 100 | > 100 | > 100 | > 100 | > 100 |  | > 100 | > 100 | > 100 | > 100 | > 100 | > 100 | > 100 | 
20 | CCN(CC)c1c(C(=O)/C=C/c2ccc(OC)cc2)c(-c2ccccc2)nn(C)c1=O | 34.6 | 47.9 |  | 44.9 | 60.8 | 99.9 | 32.7 | 49.9 | 58 | > 100 | 63.6 | 98.4 | > 100 | 46.8
21 | O=C1/C(=C/c2cccc(F)c2)CCCc2ccccc21 | 42.6 | 27.7 | 53.7 | 30.1 | 30.6 | 29.1 | 29.7 | 32.1 | 31.8 | 27.4 | 29.7 | 30.5 | 31.6 | 
22 | COC(=O)C1(C(=O)OC)Cc2ccc(OC)cc2C2=C1C(=O)c1ccccc1C2=O | 21.9 | 36.9 |  | 5.39 | 7.15 | 33.4 | 14.8 | 4.37 | 3.43 | 21.4 | 8.44 | 16.9 | 7.72 | 41.8
23 | CC[C@]1(Cc2ccc(OC)c(OC)c2)C=[N+]([O-])O[C@H](OC2CCCC2(c2ccccc2)c2ccccc2)[C@@H]1OC(=O)c1ccccc1 (stereo not given in full) | > 45.9 | > 100 |  | > 27.5 | > 66.5 | > 33.4 | > 100 | > 100 | > 100 | 62.3 | > 65.4 | > 100 | > 100 | 
24 | CC(=O)N(C)SCC(NC(=O)C(Cc1ccccc1)NC(=O)OCc1ccccc1)C(=O)NC(Cc1ccccc1)C(=O)NC(Cc1cn(C=O)c2ccccc12)C(=O)NC(CCCCNC(=O)OCc1ccccc1)C(=O)NC(C(=O)NC(CSN(C)C(C)=O)C(=O)NC(C(N)=O)C(C)OCc1ccccc1)C(C)OCc1ccccc1 (stereo not given) (Cbz-F[X31]FW(For)K(Cbz)T(Bn)[X31]T(Bn)-NH2; configuration not given here) | > 100 | > 100 | > 100 | > 100 | > 100 | 57.2 | > 100 | > 100 | > 100 | > 100 | > 100 | > 100 |  | 
25 | O=C1/C(=C/c2cccc(Br)c2)CCc2ccccc21 | 32.6 | 31.1 |  | 28.5 | 28.6 | 31 | 28 | 29.9 | 26.7 | 30.1 | 28.5 | 17.9 | 30.3 | 
26 | NC1=C(NC(=O)Cc2ccc(F)cc2)C(=O)c2ccccc2C1=O | 27.9 | > 100 | > 100 | 31.4 | > 100 | 59 | 46.8 | > 100 | > 100 | > 87.6 | > 91.6 | > 100 | > 100 | 
27 | O=c1oc2ccc3ccccc3c2cc1-c1cn2ccccc2n1 | > 100 | > 100 | > 100 | > 100 | > 100 | > 100 | > 100 | > 100 |  | > 100 | > 100 | > 100 | 75.1 | 
28 | CC(=O)C(=C(c1ccccc1)c1ccccc1)c1ccccc1 | > 100 | > 100 | > 100 | > 100 | > 100 | > 100 | > 100 | > 100 | > 100 | > 100 | > 100 | > 100 |  | 
29 | O=C1NC2ON=C(c3ccccc3)C2C2ON=C(c3ccccc3)N12 (stereo not given) | > 100 | > 100 |  | > 100 | > 100 | > 100 |  |  |  | > 100 | > 100 |  | > 100 | 
30 | CCOC(=O)/C(C#N)=C\c1ccc(N(CCC(=O)O)CCC(=O)O)c(I)c1 | > 10 | > 10 | > 10 | > 10 | > 10 | > 10 |  | > 10 | > 10 | > 10 | > 10 | > 10 | > 10 | 
31 | CCc1n[nH]c(=O)n1/N=C/c1c(O)ccc2ccccc12 | > 100 |  | > 100 | > 100 | > 100 | > 100 | > 100 | > 100 | > 100 | > 100 | > 100 | > 100 |  | 
32 | O=S1(=O)N=C(SCc2ccccc2)N(c2ccccc2)c2ccncc21 | > 100 | > 100 |  | > 100 | > 100 | > 100 | > 100 | > 100 | > 100 | > 100 | > 100 | > 100 | > 100 | 59.9
33 | CCCCCCCCCCCCCCCCCCNC(=O)C(N)Cc1ccc(OCc2ccccc2)cn1 (stereo not given) | 31.7 |  | 80.6 | 41.2 | 43.7 | 28.8 | 35.4 | 95.1 | 34 | 40 | 59.1 | 59.4 | 32.7 | 35.4
34 | CCSc1[nH]c(NC(=S)NC(=O)c2ccccc2Cl)c(C(N)=O)c1C(N)=O | > 10 |  | > 10 | > 10 | > 10 | > 10 |  | > 10 | > 10 | > 10 | > 10 | > 10 | > 10 | 
